Assay results taken from US6342319B1, “Nonaqueous electrolyte secondary battery and method of manufacturing negative electrode” (Kabushiki Kaisha Toshiba, priority 1997, dated 2002).

Assays:
[1] = Acid dissociation constant pKa of the aromatic compound used as precursor material

With `O=C(O)c1ccc(C(=O)O)c(C(=O)O)c1` [benzene-1,2,4-tricarboxylic acid] the pKa [1] was 3.5 to 4.5.

`O=C(O)c1cccc(C(=O)O)c1` [benzene-1,3-dicarboxylic acid] gave a pKa [1] of 3.5 to 4.5.

With `O=C(O)c1cccc2ccccc12` [naphthalene-1-carboxylic acid] the pKa [1] was 4.2.

`O=C(O)c1cc(C(=O)O)c(C(=O)O)cc1C(=O)O` [benzene-1,2,4,5-tetracarboxylic acid] showed a pKa [1] of 3.5 to 4.5.

Work on `O=C(O)c1ccc(C(=O)O)cc1` [benzene-1,4-dicarboxylic acid] yielded a pKa (physchem) of 3.5 to 4.5.

Work on `O=C(O)c1ccc2c3ccc(C(=O)O)c4c(C(=O)O)ccc(c5ccc(C(=O)O)c1c25)c43` [perylene-3,4,9,10-tetracarboxylic acid] yielded a pKa [1] of 3.5 to 4.5.

In the case of `O=C(O)c1ccc(C(=O)O)c2ccccc12` [naphthalene-1,4-dicarboxylic acid], the pKa [1] is reported as 3.5 to 4.5.

For `O=C(O)c1ccccc1C(=O)O` [benzene-1,2-dicarboxylic acid], the pKa (physchem) was 3.5 to 4.5.

`O=C(O)c1ccc(C(=O)O)c2c(C(=O)O)ccc(C(=O)O)c12` [naphthalene-1,4,5,8-tetracarboxylic acid] showed a pKa [1] of 3.5 to 4.5.

`O=C(O)c1cccc2cccc(C(=O)O)c12` [naphthalene-1,8-dicarboxylic acid] showed a pKa [1] of 3.5 to 4.5.
